# According to patent US20170333391A1, “METHOD FOR DELAYING THE ONSET OF PULMONARY FIBROSIS OR TREATING PULMONARY FIBROSIS” (EVERFRONT BIOTECH INC., priority 2016, published 2017):
# What was measured:
# [1] = test system: BMP-7 protein; experiment: BMP-7 protein expression in NHLF, western blotting (3-1); type: cell-based, human
# Method: Normal Human lung fibroblasts (NHLF) were seeded into 6 cm culture dishes at a density of 2×10^5 cells/dish, comprising a control group and six experimental groups (7 dishes in total). The cells were cultured until the next day, and then the mediums were removed. Each group was respectively treated under the following conditions to conduct follow-up experiments: • (1) Control group: cells were cultured in a FGM-2 medium containing 10% serum for 36 hours; • (2) Group i: cells were cultured in a FGM-2 medium containing 1% serum for 36 hours; • (3) Group ii: cells were firstly cultured in a FGM-2 medium containing 1% serum for 12 hours, and then compound (1) was added into the medium to provide a final concentration of 15 μg/ml; thereafter, the cells were cultured for another 24 hours; • (4) Group iii: cells were firstly cultured in a FGM-2 medium containing 1% serum for 12 hours, and then compound (1) was added into the medium to provide a final concentration of 25 μg/ml; thereafter, the cells were cultured for another 24 hours; • (5) Group iv: cells were cultured in a FGM-2 medium containing 1% serum and TGF-β1 (5 ng/ml) for 36 hours; • (6) Group v: cells were firstly cultured in a FGM-2 medium containing 1% serum and TGF-β1 (5 ng/ml) for 12 hours, and then compound (1) was added into the medium to provide a final concentration of 15 μg/ml; thereafter, the cells were cultured for another 24 hours; and • (7) Group vi: cells were firstly cultured in a FGM-2 medium containing 1% serum and TGF-β1 (5 ng/ml) for 12 hours, and then compound (1) was added into the medium to provide a final concentration of 25 μg/ml; thereafter, the cells were cultured for another 24 hours.
# Thereafter, the proteins in the cells of each group were extracted, and the expressions of BMP-7 protein, TGF-β protein and α-SMA protein in the NHLF cells of each group were measured with western blotting, wherein the β-actin served as the internal control. The results of the control group served as the basis for calculating the relative expression levels of the other groups.
# [2] = test system: TGF-β protein; experiment: TGF-β protein expression in transfected NHLF (pcDNA3.1 empty vector or pcDNA3.1-SOX2), western blotting (2-3); type: cell-based, human; conditions: TGF-β1 5 ng/ml 12 h
# Method: The pcDNA3.1 empty vector and the pcDNA3.1-SOX2 plasmid (i.e., pcDNA3.1 vector containing SOX2 gene) were respectively transfected into Normal Human lung fibroblasts (NHLF) by the Fugene HD cell transfection reagent. The cells were screened to obtain NHLFs containing the pcDNA3.1 empty vector or the pcDNA3.1-SOX2 plasmid.
# NHLFs containing the pcDNA3.1 empty vector were then seeded into 6 cm culture dishes at a density of 2×10^5 cells/dish, comprising a control group and three experimental groups (4 dishes in total). The cells were cultured until the next day, and then the mediums were removed. Each group was respectively treated under the following conditions to conduct follow-up experiments: • (1) Control group I: cells were cultured in a FGM-2 medium containing 1% serum for 36 hours; • (2) Group A: cells were cultured in a FGM-2 medium containing 1% serum and TGF-β1 (5 ng/ml) for 36 hours; • (3) Group B: cells were firstly cultured in a FGM-2 medium containing 1% serum and TGF-β1 (5 ng/ml) for 12 hours, and then compound (1) was added into the medium to provide a final concentration of 15 μg/ml; thereafter, the cells were cultured for another 24 hours; and • (4) Group C: cells were firstly cultured in a FGM-2 medium containing 1% serum and TGF-β1 (5 ng/ml) for 12 hours, and then compound (1) was added into the medium to provide a final concentration of 30 μg/ml; thereafter, the cells were cultured for another 24 hours.
# In another aspect, NHLFs containing the pcDNA3.1-SOX2 plasmid were seeded into the 6 cm culture dishes at a density of 2×10^5 cells/dish, comprising a control group and three experimental groups (4 dishes in total). The cells were cultured until the next day, and then the mediums were removed. Each group was respectively treated under the following conditions to conduct follow-up experiments: • (1) Control group II: cells were cultured in a FGM-2 medium containing 1% serum for 36 hours; • (2) Group D: cells were cultured in a FGM-2 medium containing 1% serum and TGF-β1 (5 ng/ml) for 36 hours; • (3) Group E: cells were firstly cultured in a FGM-2 medium containing 1% serum and TGF-β1 (5 ng/ml) for 12 hours, and then the compound (1) was added into the medium to provide a final concentration of 15 μg/ml; thereafter, the cells were cultured for another 24 hours; and • (4) Group F: cells were firstly cultured in a FGM-2 medium containing 1% serum and TGF-β1 (5 ng/ml) for 12 hours, and then the compound (1) was added into the medium to provide a final concentration of 30 μg/ml; thereafter, the cells were cultured for another 24 hours.
# Thereafter, the proteins in the cells of each group were extracted, and the expressions of Sox2 protein, TGF-β protein and type I collagen in the NHLF cells of each group were measured with western blotting. […]
smiles,measurement,setting,value
CCCC=C1OC(=O)c2ccccc21 [compound (1)],Relative expression level (fold) BMP-7 protein,"[1]; Group ii: 1% serum 12 h, then compound (1) 15 μg/ml 24 h, no TGF-β1, 10% serum control = 1, 1% serum group i = 1",0.91 fold
same,Relative expression level (fold) BMP-7 protein,"[1]; Group iii: 1% serum 12 h, then compound (1) 25 μg/ml 24 h, no TGF-β1, 10% serum control = 1, 1% serum group i = 1",0.81 fold
same,Relative expression level (fold) BMP-7 protein,"[1]; Group v: 1% serum + TGF-β1 5 ng/ml 12 h, then compound (1) 15 μg/ml 24 h, 10% serum control = 1, TGF-β1-only group iv = 0.82",0.76 fold
same,Relative expression level (fold) BMP-7 protein,"[1]; Group vi: 1% serum + TGF-β1 5 ng/ml 12 h, then compound (1) 25 μg/ml 24 h, 10% serum control = 1, TGF-β1-only group iv = 0.82",1.07 fold
same,Relative expression level (fold) TGF-β protein,"[2]; Group B: NHLF with pcDNA3.1 empty vector, then compound (1) 15 μg/ml 24 h, control group I = 1, TGF-β1-only group A = 0.84",0.89 fold
same,Relative expression level (fold) TGF-β protein,"[2]; Group C: NHLF with pcDNA3.1 empty vector, then compound (1) 30 μg/ml 24 h, control group I = 1, TGF-β1-only group A = 0.84",0.69 fold
same,Relative expression level (fold) TGF-β protein,"[2]; Group E: NHLF with pcDNA3.1-SOX2 plasmid, then compound (1) 15 μg/ml 24 h, control group II = 1, TGF-β1-only group D = 0.86",0.83 fold
same,Relative expression level (fold) TGF-β protein,"[2]; Group F: NHLF with pcDNA3.1-SOX2 plasmid, then compound (1) 30 μg/ml 24 h, control group II = 1, TGF-β1-only group D = 0.86",0.71 fold
